Here are results for four molecules from patent publication US20200291444A1, “Macrocyclisation Tags” (Oxford University Innovation LTD, priority 2017, published 2020).

Series [1] concerns PCY1. The experiment in a line: LC/MS time course of macrocyclisation by PCY1. To be noted: 200 μM substrate, 3.6 μM PCY1. Format: biochemical, Saponaria vaccaria. How it is done: All kinetic measurements (activity tests, progress curves and initial-rate experiments) were performed as discontinuous assays analyzing samples via LC/MS or MALDI (10-mer activity test). Reactions were performed in 20 mM Tris pH 8.5, 100 mM NaCl, 5 mM DTT (for progress curves 0.2 mg mL-1 BSA was included).17 Reactions were performed at 30° C. and at various time points 50 μL samples were quenched with 20 μL of 6% (v/v) TFA. Samples (50 μL) were loaded onto a ZORBAX SBC18, 5 μm, 9.4 mm×50 mm (Agilent) column connected to an Agilent LC-MS instrument (G6130B Single Quad, Agilent Technologies). Reactants were separated from products using a gradient from A (H2O with 0.1% formic acid) to 80% B (acetonitrile), at a rate of 1.5 mL/min for 8.75 min. For data analysis, ion count peaks and UV absorbance peaks were integrated using Agilent ChemStation software. For data analysis involving quantitative mass spec integration, calibration curves with macrocyclic peptide product were performed in triplicate in order to linearly correlate ion counts to cyclic product concentration. Data fitting and plotting was performed with Prism 6.
PCY1 extracted from S. vaccaria seeds has been previously described to have a turnover number of ˜1 h^−1 for PresegA1.^17 The enzyme produced heterologously in E. coli was evaluated by LC/MS-based time course experiments macrocyclizing 200 μM of PresegA1, PresegB1 or PresegF1 with 3.6 μM PCY1. […] We chose to investigate the slowest and fastest substrate by steady-state kinetics using an LC/MS assay and UV280 nm quantification. […] Under the ITC conditions, the measured kcat (0.14±0.01 s^−1) was a factor of three lower than the LC/MS derived values. […] Therefore, we resorted to an LC/MS assay followed by quantification using mass ion counts, relying on a calibration curve employing the macrocyclic peptide product as a standard (FIG. 2b).

Another series addresses PCY1:S562A. As to the kind of experiment: ITC equilibrium binding to PCY1:S562A. The arrangement: species or system Saponaria vaccaria. To be noted: ITC, 25° C. The method, boiled down: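 Peptides were titrated into PCY1:S562A in matched buffer F at 25° C and 750 rpm, with a reference power of 10 μcal/s (5 μcal/s for A1-NH2). Peptide-into-buffer control titrations were run, and data were fitted to a non-linear one-site binding model.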

Series [2] deals with PCY1. To be noted: PCY1 extracted from S. vaccaria seeds; cited from earlier work.
In series [3] the target is T1, GmPOPB_S577A (Galerina marginata, UniProt H2E7Q8, S577A).
T1 construct: His-tag (TEV-cleavable) (cleaved yes); made in house; host or cells: E. coli BL21(DE3)
T1 sequence (H2E7Q8 1-730 S577A): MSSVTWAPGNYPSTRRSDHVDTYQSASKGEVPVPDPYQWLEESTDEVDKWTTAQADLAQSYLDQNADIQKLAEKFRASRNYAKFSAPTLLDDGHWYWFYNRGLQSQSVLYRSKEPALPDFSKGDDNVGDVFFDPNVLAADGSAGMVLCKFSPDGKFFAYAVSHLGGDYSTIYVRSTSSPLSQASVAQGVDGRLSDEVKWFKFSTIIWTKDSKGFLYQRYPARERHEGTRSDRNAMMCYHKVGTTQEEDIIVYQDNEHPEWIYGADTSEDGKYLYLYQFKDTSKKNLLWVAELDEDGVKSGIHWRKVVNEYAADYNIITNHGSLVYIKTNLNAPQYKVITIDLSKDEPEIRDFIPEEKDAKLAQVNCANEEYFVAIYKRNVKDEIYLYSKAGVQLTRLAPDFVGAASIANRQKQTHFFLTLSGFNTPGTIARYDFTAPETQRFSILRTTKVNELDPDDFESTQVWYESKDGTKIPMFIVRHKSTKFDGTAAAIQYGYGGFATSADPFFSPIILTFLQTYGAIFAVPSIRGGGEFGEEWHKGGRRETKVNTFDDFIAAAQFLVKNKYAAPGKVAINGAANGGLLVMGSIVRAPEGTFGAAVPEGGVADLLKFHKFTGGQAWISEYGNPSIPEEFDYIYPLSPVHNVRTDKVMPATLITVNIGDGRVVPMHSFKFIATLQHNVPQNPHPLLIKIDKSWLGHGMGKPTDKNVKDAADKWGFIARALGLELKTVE
The experiment in a line: ITC binding to inactive mutant GmPOPB_S577A.

For series [4], the target named is T1, GmPOPB_S577A. The note with it: previously shown; cited from earlier work.
Another series concerns PresegB1. The experiment in a line: Activity test of PCY1 variants with PresegB1 as substrate. Format: biochemical, Saponaria vaccaria.
Series [5] addresses T2, GmPOPB_S577A (Galerina marginata), H2E7Q8.
T2 chain: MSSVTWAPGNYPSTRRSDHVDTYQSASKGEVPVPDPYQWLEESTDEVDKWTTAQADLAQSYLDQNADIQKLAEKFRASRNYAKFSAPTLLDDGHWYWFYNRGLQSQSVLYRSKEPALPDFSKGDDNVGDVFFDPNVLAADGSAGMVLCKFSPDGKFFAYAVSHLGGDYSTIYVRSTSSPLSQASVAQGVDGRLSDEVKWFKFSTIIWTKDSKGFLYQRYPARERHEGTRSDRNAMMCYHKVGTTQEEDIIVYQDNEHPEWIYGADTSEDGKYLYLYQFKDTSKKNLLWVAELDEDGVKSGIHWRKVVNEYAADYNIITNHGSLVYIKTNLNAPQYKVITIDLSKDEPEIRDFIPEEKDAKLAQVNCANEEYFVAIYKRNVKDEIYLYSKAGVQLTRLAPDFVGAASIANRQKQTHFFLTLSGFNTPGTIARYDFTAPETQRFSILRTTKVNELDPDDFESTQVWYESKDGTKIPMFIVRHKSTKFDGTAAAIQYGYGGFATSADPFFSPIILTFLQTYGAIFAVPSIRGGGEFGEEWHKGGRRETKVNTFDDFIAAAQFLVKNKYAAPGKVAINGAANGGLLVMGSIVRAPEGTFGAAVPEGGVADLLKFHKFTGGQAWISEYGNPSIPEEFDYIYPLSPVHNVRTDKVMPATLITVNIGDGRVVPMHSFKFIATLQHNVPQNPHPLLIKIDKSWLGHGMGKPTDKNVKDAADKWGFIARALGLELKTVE
The experiment in a line: ITC, peptide titrated into GmPOPB_S577A, 20 C.

No end group written: not given here.

For the molecule “PresegA1: native linear PCY1 substrate presegetalin A1; produces a 6 residue macrocycle (GVPVWAFQAKDVENASAPV; PresegA1)”, the “time until completely macrocyclized” value in the series on PCY1 [1] is given as ~50 min. The Kd on PCY1:S562A is ~200 nM. Besides, in the series on PCY1 [2], the turnover number was ~1 h⁻¹.

Turning to “WTAEHVDQTLASGNDIC [17mer-recogSeq, reference compound]”, at GmPOPB_S577A [3], binding was characterised by a dissociation constant (Kd) of 430 ± 10 nM. In addition, the “difference in ΔG between the 17mer recognition sequence and the 25mer peptide” value at GmPOPB_S577A [4] was 1.34 kcal/mol.

B1: S562A: PCY1 variant (protein)
chain: MATSGFSKPLHYPPVRRDETVVDDYFGVKVADPYRWLEDPNSEETKEFVDNQEKLANSVLEECELIDKFKQKIIDFVNFPRCGVPFRRANKYFHFYNSGLQAQNVFQMQDDLDGKPEVLYDPNLREGGRSGLSLYSVSEDAKYFAFGIHSGLTEWVTIKILKTEDRSYLPDTLEWVKFSPAIWTHDNKGFFYCPYPPLKEGEDHMTRSAVNQEARYHFLGTDQSEDILLWRDLENPAHHLKCQITDDGKYFLLYILDGCDDANKVYCLDLTKLPNGLESFRGREDSAPFMKLIDSFDASYTAIANDGSVFTFQTNKDAPRKKLVRVDLNNPSVWTDLVPESKKDLLESAHAVNENQLILRYLSDVKHVLEIRDLESGALQHRLPIDIGSVDGITARRRDSVVFFKFTSILTPGIVYQCDLKNDPTQLKIFRESVVPDFDRSEFEVKQVFVPSKDGTKIPIFIAARKGISLDGSHPCEMHGYGGFGINMMPTFSASRIVFLKHLGGVFCLANIRGGGEYGEEWHKAGFRDKKQNVFDDFISAAEYLISSGYTKARRVAIEGGANGGLLVAACINQRPDLFGCAEANCGVMDMLRFHKFTLGYLWTGDYGCSDKEEEFKWLIKYSPIHNVRRPWEQPGNEETQYPATMILTADHDDRVVPLHSFKLLATMQHVLCTSLEDSPQKNPIIARIQRKAAHYGRATMTQIAEVADRYGFMAKALEAPWID
Take B1: in the series on PresegB1, the “relative activity of PCY1 variant (in words)” value is “inactive”.

For MFDTNATRLPIWGIGCNPWTAEHVDQTLASGNDIC (modifications not checked) [35mer substrate (GmAMA1)], the equilibrium dissociation constant (Kd) in series [5] amounted to 120 nM.
